Series [1] has as its system mice. As to conditions: cited from earlier work.
Series [2] relates to rats. As to conditions: cited from earlier work.
For series [3], the target named is T1, cytochrome P450 1A2 (Homo sapiens, UniProt P05177).
T1 sequence (P05177 1-516): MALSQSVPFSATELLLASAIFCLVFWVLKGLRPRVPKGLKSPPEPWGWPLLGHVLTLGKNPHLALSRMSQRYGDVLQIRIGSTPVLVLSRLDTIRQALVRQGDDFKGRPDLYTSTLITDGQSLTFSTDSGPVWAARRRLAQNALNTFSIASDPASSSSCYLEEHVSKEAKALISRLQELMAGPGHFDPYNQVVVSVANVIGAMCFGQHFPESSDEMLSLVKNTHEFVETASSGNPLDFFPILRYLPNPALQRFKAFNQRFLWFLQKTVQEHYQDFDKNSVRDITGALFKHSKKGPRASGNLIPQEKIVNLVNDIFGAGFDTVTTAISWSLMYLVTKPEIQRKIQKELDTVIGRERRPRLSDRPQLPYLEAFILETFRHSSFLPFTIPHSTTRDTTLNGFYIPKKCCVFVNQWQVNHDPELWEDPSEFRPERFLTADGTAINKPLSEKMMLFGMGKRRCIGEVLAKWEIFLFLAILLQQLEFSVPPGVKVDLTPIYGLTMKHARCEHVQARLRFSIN
As to conditions: cited from earlier work.

For series [4], the system named is Sprague-Dawley rats. The experiment in a line: Cue-induced reinstatement of the cocaine self-administration response (Phase II). The format is in vivo, rat. As to conditions: 10 mg/kg PO, 1 hour prior to test; after 9-day extinction. As for the experimental part: The methods for food training, catheter surgery, flushing and infusion confirmation were the same as those in Phase I.
Cocaine self-administration training in this stage was conducted in a separate cohort of rats (N=32). The methods of training were the same as those in Phase I, but the cues (light flash plus tone) appeared concurrently during cocaine infusion, and the cue light stayed on during the 20 second timeout period. As in Phase I, rats underwent 15 days of acquisition training.
After a stable rate of cocaine self-administration was achieved, the rats underwent a 9-day extinction procedure, which was similar to acquisition training except that pressing the active lever led to saline infusion instead of cocaine. During extinction sessions no cues were presented after an active lever-press. Rats were all reached the criterion for extinction (number of infusions ≤5, i.e. number of active lever responses <30 in the 1-hour session) in day 9 (last day) of extinction training.
During the reinstatement session, which occurred one day after the last extinction session, rats were presented the cues (flash+tone) at the beginning of the session and their lever-press responses recorded. There was no cocaine infusion during this reinstatement session, subject only received saline on a FR5 schedule. […]

In series [5] the test system is Sprague-Dawley rats. The experiment in a line: Acute effects on cocaine intravenous self-administration (Phase I, FR5). The format is in vivo, rat. As to conditions: sub-cohort I-b. As to the method:
Adult male Sprague-Dawley rats (300-325 g at arrival) from Harlan Laboratory (Indiana, USA) were used. Upon arrival, the rats were assigned a unique identification numbers (tail marks). Animals were single housed in suspended polycarbonate rat cages with filter tops, and were acclimated for up to 7 days. All rats were examined, handled, and weighed prior to initiation of the study to assure adequate health and suitability. During the course of the study, 12 h/12 h light/dark cycles were maintained. The room temperature was 21-23° C. with a relative humidity maintained at 30-70%. Water was provided ad libitum for the duration of the study.
Cocaine Hydrochloride (Sigma-Aldrich, USA) (1.05 mg/ml which is equivalent to 0.3 mg/kg/infusion under 350 g body weight and 0.1 ml/infusion rate) was dissolved in saline (0.9% NaCl). The formulation was a clear solution.
Mavoglurant (free form) was formulated in 0.5% methylcellulose (MC) at 1, 3 and 10 mg/kg and administered orally at a dose volume of 1 ml/kg 60 minutes prior to test.
Intravenous drug self-administration took place in sound attenuated operant chambers equipped with an exhaust fan (Med Associates, VT). Each chamber contained two levers situated on one wall of the chamber. Only one of the two levers was active (located on the left side). Pressing the active lever caused delivery of reinforcer (food or cocaine). […]

The target in series [6] is norepinephrine transporter (Homo sapiens, UniProt P23975). As to conditions: cited from earlier work.
Chain of norepinephrine transporter (P23975 whole entry, species assumed): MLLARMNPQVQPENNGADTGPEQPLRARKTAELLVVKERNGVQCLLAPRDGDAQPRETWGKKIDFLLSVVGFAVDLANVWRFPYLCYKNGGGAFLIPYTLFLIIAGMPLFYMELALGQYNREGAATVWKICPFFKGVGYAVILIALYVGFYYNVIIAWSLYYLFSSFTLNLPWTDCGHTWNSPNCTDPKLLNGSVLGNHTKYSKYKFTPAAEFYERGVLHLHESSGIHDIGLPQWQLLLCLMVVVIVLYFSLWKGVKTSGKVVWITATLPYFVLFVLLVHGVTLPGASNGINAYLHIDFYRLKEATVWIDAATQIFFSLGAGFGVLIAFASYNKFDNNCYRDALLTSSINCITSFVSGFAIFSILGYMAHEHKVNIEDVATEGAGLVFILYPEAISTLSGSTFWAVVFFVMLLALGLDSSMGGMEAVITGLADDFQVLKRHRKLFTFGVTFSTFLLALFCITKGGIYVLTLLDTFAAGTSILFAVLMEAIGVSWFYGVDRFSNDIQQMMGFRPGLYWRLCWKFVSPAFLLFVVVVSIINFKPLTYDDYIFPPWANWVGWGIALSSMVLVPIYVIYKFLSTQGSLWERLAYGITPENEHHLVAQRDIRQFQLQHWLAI
Series [7] deals with NMDA receptors. As to conditions: cited from earlier work.
The subject of series [8] is mice. As to conditions: cited from earlier work. This is another data set of the same source.
Series [9] relates to monoamine oxidase. As to conditions: cited from earlier work.

“Also recorded” adds a separate entry of the source.

With `Cc1nc(C#Cc2cccnc2)cs1` [MTEP, 3-[2-(2-methylthiazol-4-yl)ethynyl]pyridine], in [1], the ethanol consumption entry is “decreased ethanol consumption” and the ethanol self-administration result is “decreased ethanol self-administration”. Also, the cocaine self-administration entry in series [2] is recorded as “decreased cocaine self-administration”. Also, the “inhibition of cytochrome P450 1A2” value in [3] is listed as “potent inhibition”.

For `COC(=O)N1CC[C@@H]2[C@H]1CCC[C@@]2(O)C#Cc1cccc(C)c1` [mavoglurant, (−)-(3aR,4S,7aR)-4-Hydroxy-4-m-tolylethynyl-octahydro-indole-1-carboxylic acid methyl ester], the “cue-induced reinstatement of the self-administration response” value in series [4] is on record as “cue-induced reinstatement was suppressed; also recorded: completely prevented cue-induced reinstatement”. In addition, the “responding on the active lever (cocaine self-administration)” value in [5] (3 mg/kg PO, 60 minutes prior to test, post hoc p<0.10) was “tended to reduce responding on the active lever”; in series [5] (10 mg/kg PO, 1 hour prior to test, post hoc p<0.001), “significantly reduced responding; also recorded: significantly reduced cocaine self-administration”.

Regarding `Cc1cccc(C#Cc2ccccc2)n1` [MPEP, 2-methyl-6-(2-phenylethynyl)pyridine], in [6], the “off-target effects on the norepinephrine transporter” value was “off-target effects”. The “off-target effects on NMDA receptors” value in [7] is listed as “off-target effects”. The cocaine self-administration entry in series [8] and in [2] was “decreased cocaine self-administration” in each case. The ethanol self-administration result in [1] was “decreased ethanol self-administration”. Besides, the “off-target effects on monoamine oxidase” value in series [9] is recorded as “off-target effects”.

Source of the values: patent publication US12201612B2, “Use of mavoglurant in the reduction of alcohol use or in preventing relapse into alcohol use” (NOVARTIS AG, priority 2017, dated 2025).
